From patent US12295992B2, “Use of ALDH1A and agonist, catalyst and inhibitor thereof” (SHANGHAI INSTITUTES FOR BIOLOGICAL SCIENCES, CHINESE …, priority 2017, dated 2025)

How the values were obtained:
[1] = test system: mice overexpressing UBE3A; experiment: Rotating rod experiment in mice overexpressing UBE3A; assay type: in vivo; conditions: oral ATRA 3 mg/kg
Description: Three-week-aged mice were anesthetized with intraperitoneal injection of pentobarbital (50 mg/kg) and fixed on a locator (Rivend, China). 1 μL of PBS-diluted AAV virus was injected at a rate of 0.2 μL/min on both sides of the PFC region in the mouse brain using a syringe pump (Stoelting). The position of the site injection (relative to the front fontanel): AP, +2 mm; ML, ±0.5 mm; DV, −1.3 mm. The amount of virus injected per injection site was: AAV-SynI-Flag-UBE3A and its mutant T508E, 3×10^9; and AAV-SynI-Flag-EGFP, 1.5×10^9. The needle was held in place for another 3 minutes to prevent virus reflux. The mice were placed on a 37° C. electric blanket until they recovered completely from the anesthesia. 1-2 days after surgery, mice were intraperitoneally injected with 0.5 mg/ml meloxicam (Sigma, 2 mg/kg) to help the mice to relieve pain. Four weeks after surgery, mice were tested for behavior. […]
After mice were randomized into groups, the motor coordination ability of the mice was recorded using a Rotamex rotarod instrument (Columnbus Instruments). […] The time before the test mice dropped off the rod was automatically recorded by an infrared detection system, and the results of the last test were finally compared.

[2] = test system: wild-type C57BL/6 mice; experiment: Self-grooming experiment in wild-type mice; assay type: in vivo; conditions: wild-type mice, oral ATRA, same administration
Description: Four-week-aged mice were given a low dose (0.1 mg/g) or a high dose (0.3 mg/g) of DSF (Sigma, dissolved in olive oil) every two days for 6 weeks. The control group was only given the solvent olive oil (Aladdin). The body weight of the mice was weighed weekly. After 6 weeks of gastric administration, the test of mouse behavior was started. The brains of the control and DSF mice were dissected and taken. After freezing with liquid nitrogen, the brain tissue was homogenized, and ATRA was quantified by the HPLC-MS/MS method as described hereinafter. The mice used in the self-grooming experiment were placed in a cage box filled with a filler having a thickness of about 0.5-1 cm for 10 minutes in advance for accommodation. Then, within 10 minutes, the time of self-grooming in mice was recorded by a double-blind experimenter through a stopwatch.

[3] = test system: mice overexpressing UBE3A; experiment: Self-grooming experiment in mice overexpressing UBE3A (AAV in PFC); assay type: in vivo; conditions: oral ATRA 3 mg/kg, four weeks, compared to oral solvent group
Description: To further verify whether UBE3A overactivation triggered the autism phenotype in mice due to injury in the RA production process, mice injected with UBE3A-bearing AAV virus in PFC were orally administered with oral solvents (olive oil) or ATRA (3 mg/kg), administered five consecutive days per week for a total of four weeks.

[4] = test system: mice overexpressing UBE3A; experiment: Three-chamber social experiment in mice overexpressing UBE3A; assay type: in vivo; conditions: oral ATRA 3 mg/kg
Description: Three-week-aged mice were anesthetized with intraperitoneal injection of pentobarbital (50 mg/kg) and fixed on a locator (Rivend, China). 1 μL of PBS-diluted AAV virus was injected at a rate of 0.2 μL/min on both sides of the PFC region in the mouse brain using a syringe pump (Stoelting). The position of the site injection (relative to the front fontanel): AP, +2 mm; ML, ±0.5 mm; DV, −1.3 mm. […] The needle was held in place for another 3 minutes to prevent virus reflux. The mice were placed on a 37° C. electric blanket until they recovered completely from the anesthesia. 1-2 days after surgery, mice were intraperitoneally injected with 0.5 mg/ml meloxicam (Sigma, 2 mg/kg) to help the mice to relieve pain. Four weeks after surgery, mice were tested for behavior. […] Behavioral testing was performed 4 weeks after administration.
A three-chamber social experiment was performed according to previously reported procedures (Sztainberg et al., 2015). Briefly, a transparent acrylic box for social experiment was divided into three chambers of uniform size with removable gates mounted on the partition board. An inverted iron mesh cup was placed in each of the left and right chambers. Two days before the experiment, C57BL/6 mice, which were from different family and whose age was matched with the test mice, were placed in two cups as strange mice for 1 hour each day for accommodation. Test mice were randomized into groups and accommodated to the test chamber for 1 hour before the test started. Each test mouse was placed in the center chamber for 10 minutes for self-exploration, and the chamber door was closed. In the first stage, a strange mouse was randomly placed in the left or right cup (avoiding positional bias), and the inanimate article was placed in the cup on the other side. Each test mouse was explored for 10 minutes in the open three-chambers, and the communication time between the test mice and the strange mice or the articles was manually recorded. In the second stage, the test mice were kept in the chamber of the strange mouse for 5 minutes, and then another strange mouse was placed in the cup in which the article was previously placed. The test mice were further explored for 10 minutes, and the communication time between the test mice and the familiar animals or the new animals was manually recorded.
To further verify whether UBE3A overactivation triggered the autism phenotype in mice due to injury in the RA production process, mice injected with UBE3A-bearing AAV virus in PFC were orally administered with oral solvents (olive oil) or ATRA (3 mg/kg), administered five consecutive days per week for a total of four weeks. Then the mice were subjected to behavioral experiments (FIG. 8a).

[5] = test system: wild-type C57BL/6 mice; experiment: Open field experiment in wild-type mice; assay type: in vivo; conditions: wild-type mice, oral ATRA, same administration
Description: (§1) Four-week-aged mice were given a low dose (0.1 mg/g) or a high dose (0.3 mg/g) of DSF (Sigma, dissolved in olive oil) every two days for 6 weeks. The control group was only given the solvent olive oil (Aladdin). The body weight of the mice was weighed weekly. After 6 weeks of gastric administration, the test of mouse behavior was started. The brains of the control and DSF mice were dissected and taken. After freezing with liquid nitrogen, the brain tissue was homogenized, and ATRA was quantified by the HPLC-MS/MS method as described hereinafter.
Mice were randomized into groups and placed in an open field instrument (Med Associates) for 30 minutes. The Ethovision automatic recording software (Noldus) was used to record the time spent by the mouse in the central region (⅓ to ⅔ of length on each side of the region) and to calculate the ratio of the distance walked in the central region to the total distance.

[6] = test system: wild-type C57BL/6 mice; experiment: Three-chamber social experiment in wild-type mice; assay type: in vivo; conditions: wild-type mice, oral ATRA, same administration
Description: Four-week-aged mice were given a low dose (0.1 mg/g) or a high dose (0.3 mg/g) of DSF (Sigma, dissolved in olive oil) every two days for 6 weeks. The control group was only given the solvent olive oil (Aladdin). The body weight of the mice was weighed weekly. After 6 weeks of gastric administration, the test of mouse behavior was started. The brains of the control and DSF mice were dissected and taken. After freezing with liquid nitrogen, the brain tissue was homogenized, and ATRA was quantified by the HPLC-MS/MS method as described hereinafter. A three-chamber social experiment was performed according to previously reported procedures (Sztainberg et al., 2015). Briefly, a transparent acrylic box for social experiment was divided into three chambers of uniform size with removable gates mounted on the partition board. An inverted iron mesh cup was placed in each of the left and right chambers. Two days before the experiment, C57BL/6 mice, which were from different family and whose age was matched with the test mice, were placed in two cups as strange mice for 1 hour each day for accommodation. Test mice were randomized into groups and accommodated to the test chamber for 1 hour before the test started. Each test mouse was placed in the center chamber for 10 minutes for self-exploration, and the chamber door was closed. In the first stage, a strange mouse was randomly placed in the left or right cup (avoiding positional bias), and the inanimate article was placed in the cup on the other side. […] In the second stage, the test mice were kept in the chamber of the strange mouse for 5 minutes, and then another strange mouse was placed in the cup in which the article was previously placed.

[7] = test system: mice overexpressing UBE3A; experiment: Open field experiment in mice overexpressing UBE3A; assay type: in vivo; conditions: oral ATRA 3 mg/kg, vs solvent group
Description: Three-week-aged mice were anesthetized with intraperitoneal injection of pentobarbital (50 mg/kg) and fixed on a locator (Rivend, China). 1 μL of PBS-diluted AAV virus was injected at a rate of 0.2 μL/min on both sides of the PFC region in the mouse brain using a syringe pump (Stoelting). The position of the site injection (relative to the front fontanel): AP, +2 mm; ML, ±0.5 mm; DV, −1.3 mm. The amount of virus injected per injection site was: AAV-SynI-Flag-UBE3A and its mutant T508E, 3×10^9; and AAV-SynI-Flag-EGFP, 1.5×10^9. The needle was held in place for another 3 minutes to prevent virus reflux. The mice were placed on a 37° C. electric blanket until they recovered completely from the anesthesia. 1-2 days after surgery, mice were intraperitoneally injected with 0.5 mg/ml meloxicam (Sigma, 2 mg/kg) to help the mice to relieve pain. Four weeks after surgery, mice were tested for behavior. In the ATRA compensation experiment, one week after the injection of AAV-SynI-Flag-UBE3A virus, mice were orally administered with ATRA (Sigma, dissolved in olive oil, 3 mg/kg) or olive oil for five consecutive days. Behavioral testing was performed 4 weeks after administration.
Mice were randomized into groups and placed in an open field instrument (Med Associates) for 30 minutes. […]

[8] = test system: wild-type C57BL/6 mice; experiment: Rotating rod experiment in wild-type mice; assay type: in vivo; conditions: wild-type mice, oral ATRA, same administration
Description: as §1
After mice were randomized into groups, the motor coordination ability of the mice was recorded using a Rotamex rotarod instrument (Columnbus Instruments). On the same day, the test mice were tested 3 times, each experiment was lasted 5 minutes, and the rotating rod was accelerated from 4 revolutions […]. There were at least 30 minutes between two experiments. The time before the test mice dropped off the rod was automatically recorded by an infrared detection system, and the results of the last test were finally compared.

[9] = target: T1, GST-UBE3A and ALDH1A2 proteins (Homo sapiens, UniProt O94788); experiment: GST pull-down competition of UBE3A-ALDH1A2 binding; conditions: peptide added in GST pull-down experiment
T1 construct: His6 (C); made in house; host or cells: E. coli BL21
T1 sequence (O94788 1-518): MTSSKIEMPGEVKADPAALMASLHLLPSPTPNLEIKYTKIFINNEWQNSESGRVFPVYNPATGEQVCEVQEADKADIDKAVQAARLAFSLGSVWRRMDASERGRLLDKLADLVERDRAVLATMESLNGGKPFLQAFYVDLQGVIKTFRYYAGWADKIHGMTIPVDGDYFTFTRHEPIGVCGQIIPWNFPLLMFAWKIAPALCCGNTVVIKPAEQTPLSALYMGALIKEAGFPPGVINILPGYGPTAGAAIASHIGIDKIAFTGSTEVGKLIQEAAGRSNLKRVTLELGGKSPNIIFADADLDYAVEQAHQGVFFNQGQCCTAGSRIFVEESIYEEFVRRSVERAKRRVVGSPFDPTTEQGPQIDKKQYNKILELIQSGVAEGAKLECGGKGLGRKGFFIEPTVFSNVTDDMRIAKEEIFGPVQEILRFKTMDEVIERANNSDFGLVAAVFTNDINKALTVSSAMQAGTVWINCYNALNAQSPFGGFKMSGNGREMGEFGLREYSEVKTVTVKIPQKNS
Description: GST, GST-UBE3A and the truncated GST-UBE3A proteins were induced to express in BL21 competent bacterium (NEB) and purified using glutathione agarose (GE Healthcare). ALDH1A1-His6, ALDH1A2-His6 and ALDH1A3-His6 proteins were purified using Ni-NTA agarose (Qiagen). The purified ALDH1A2-His6 and GST-UBE3A proteins were incubated in a pull-down buffer (50 mM Tris-Cl, pH 8.0, 200 mM NaCl, 1 mM EDTA, 1% NP-40, 1 mM DTT, 10 mM MgCl2) at 4° C. for 2 hours. The beads were washed 4 times with the pull-down buffer and analyzed by immunoblotting. The pull-down analysis of other proteins followed the same steps.
Since there was no known substrate for UBE3A to explain the association between the onset of ASD and UBE3A overactivation from a mechanical perspective (Glessner et al., 2009), human UBE3A protein was firstly used as a bait to screen for unknown substrate proteins by yeast two-hybrid method. […] Retinoic acid or RA, as an active metabolite of vitamin A (retinol), is required for the development and growth of higher animals including human. The synthesis of RA is accomplished in two steps, including retinol dehydrogenase (RDH10), which catalyzes retinol into retinal, and retinal dehydrogenase (ALDH1A1, ALDH1A 2, and ALDH1A 3 families which catalyze retinal into retinoic acid). Endogenous or exogenously expressed UBE3A and ALDH1A2 proteins were confirmed to form complexes in HEK-293FT cells by immunoprecipitation experiments (FIG. 2b-c). In immunofluorescence experiments, Flag-tagged and RFP-tagged UBE3A and ALDH1A2 proteins were co-localized in the cytoplasm of […] cell SH-SY5Y (FIG. 2d). The GST pull-down experiment further confirmed that the recombinant proteins UBE3A and ALDH1A2 could bind directly in vitro (FIG. 2e) and bound through the N-terminal (amino acid position of 1-280) of UBE3A (FIG. 2f). Since the ALDH1A2 protein had high sequence homology to other family members of ALDH1A1 and ALDH1A 3, it was further verified that UBE3A could bind directly to ALDH1A1 and ALDH1A3, respectively, in vitro and in vivo (FIG. 2g-j). […]

CC1=C(/C=C/C(C)=C/C=C/C(C)=C/C(=O)O)C(C)(C)CCC1 [ATRA, all-trans retinoic acid]
sport ability (rotating rod) [1]: did not affect the sport ability
self-grooming experiment, solvent vs ATRA [2]: did not cause any differences
time spent on self-grooming behavior [3]: significantly reduced
cognitive deficits in social novelty [4]: alleviated
time interacting with social animals vs non-social articles [4]: nearly twice as much time
time spent with strange mice vs familiar mice [4]: twice
social barriers ([4]; compared with solvent group): completely reversed
open field experiment, solvent vs ATRA [5]: did not cause any differences
three-chamber social interaction experiment, solvent vs ATRA [6]: did not cause any differences
distance walked in open field [7]: walked more distance
time in the middle of the open field [7]: less time
rotating rod experiment, solvent vs ATRA [8]: did not cause any differences

peptide-1: SEQ ID No: 9 ASRMKRAAAKHLIERYYHQLTEGCG, targets UBE3A-ALDH1A2 binding region (peptide-1)
blocking of binding between GST-UBE3A and ALDH1A2 proteins [9]: could block the bonding between GST-UBE3A and ALDH1A2 proteins in different extend

peptide-2: SEQ ID No: 10 NNAAAIKALELYKINAKLCDPH, targets UBE3A-ALDH1A2 binding region (peptide-2)
blocking of binding between GST-UBE3A and ALDH1A2 proteins [9]: could block the bonding between GST-UBE3A and ALDH1A2 proteins in different extend

peptide-3: SEQ ID No: 11 AEALVQSFRKVKQHTKEELKSLQAKDEDKD, targets UBE3A-ALDH1A2 binding region (peptide-3)
blocking of binding between GST-UBE3A and ALDH1A2 proteins [9]: could block the bonding between GST-UBE3A and ALDH1A2 proteins in different extend
